Laboratory results reported in US20090023163A1, “Method of Measuring Enzyme Activity and Method of Evaluating Compound” (priority 2005, published 2009).

Columns and labels:
Type in all cases: biochemical
[1] = target: T1, hElovl-1 (human elongase of very long chain fatty acids-like 1) (Homo sapiens, UniProt Q9BW60); assay: Measuring activity of hElovl-1 using N-Tag-hACBP (SPA); conditions: HEK293 microsomal sample of hElovl-1, 40 μM long chain fatty acid CoA, 60 μM malonyl-CoA, 37° C. 2 hours, FIG. 3
T1 construct: implied by vector pCMV-Tag2B, own knowledge) (N); made in house; host or cells: HEK293, microsomal sample
T1 sequence (Q9BW60 1-279): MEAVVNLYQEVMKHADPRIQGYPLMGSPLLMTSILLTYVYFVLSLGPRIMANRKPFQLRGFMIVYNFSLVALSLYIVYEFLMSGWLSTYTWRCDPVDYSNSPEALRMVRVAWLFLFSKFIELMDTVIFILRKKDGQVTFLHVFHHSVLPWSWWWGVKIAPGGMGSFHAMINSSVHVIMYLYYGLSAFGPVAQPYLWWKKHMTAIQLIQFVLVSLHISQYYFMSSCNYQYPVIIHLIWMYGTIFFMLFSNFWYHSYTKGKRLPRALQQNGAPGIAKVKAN
Description: (§1) An assay buffer solution (100 mM sodium chloride, 100 mM Tris buffer solution, pH 6.5) containing the cell microsomal sample of hElovl-3 or hElovl-1 obtained by the above-mentioned preparation method, 1 μM rotenone (manufactured by Sigma), 1 mM NADPH (reduced nicotinamide adenine dinucleotide phosphate, manufactured by Sigma), 20 μM fatty acid-free bovine serum albumin (manufactured by Sigma), 40 μM long chain fatty acid CoA (manufactured by Sigma, manufactured by Avanti), and 50,000 dpm of 60 μM malonyl-CoA (manufactured by Sigma, Muromachi Yakuhin Kagaku) was incubated at 37° C. for 2 hours in a 96-well Opti-plate (Packard), and then, 0.25% octyl-beta-glucoside was added thereto to stop the reaction.
(§2) Subsequently, 2 μg of a human acyl-CoA-binding protein tagged with a His tag at the N terminus and 500 μg of SPA resin (PVT copper His-Tag SPA Beads, manufactured by Amersham) were added to the reaction solution, and the resulting mixture was incubated at 37° C. for 30 minutes, followed by centrifugation at 3,000 rpm, and an activity was measured using a Top Count (Packard).
(§3) In order to evaluate a specific activity, an expression vector in which either enzyme was not cloned was transfected into a host cell, HEK293 by the host cationic lipid method, and comparison was carried out with the microsomal sample obtained by a standard method from the expressing cell.

[2] = target: T2, hElovl-3 (human elongase of very long chain fatty acids-like 3) (Homo sapiens, UniProt Q9HB03); assay: Measuring activity of hElovl-3 using N-Tag-hACBP (SPA); conditions: HEK293 microsomal sample of hElovl-3, 40 μM long chain fatty acid CoA, 60 μM malonyl-CoA, 37° C. 2 hours, FIG. 2
T2 construct: made in house; host or cells: HEK293, microsomal sample
T2 sequence (Q9HB03 1-270): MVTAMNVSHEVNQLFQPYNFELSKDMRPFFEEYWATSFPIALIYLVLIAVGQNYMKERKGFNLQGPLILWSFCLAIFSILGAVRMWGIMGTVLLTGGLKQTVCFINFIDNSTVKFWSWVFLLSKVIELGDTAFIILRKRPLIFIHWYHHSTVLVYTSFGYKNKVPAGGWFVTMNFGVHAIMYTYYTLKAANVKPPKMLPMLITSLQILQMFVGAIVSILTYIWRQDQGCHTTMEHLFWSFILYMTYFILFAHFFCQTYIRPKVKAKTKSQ
Description: as §1, §2, §3

[3] = target: T3, hLCE (human long chain fatty acyl elongase) (Homo sapiens, UniProt Q9H5J4); assay: Measuring LCE activity using N-Tag-hACBP (SPA); conditions: yeast microsomal sample of hLCE, 40 μM long chain fatty acid CoA, 60 μM malonyl-CoA, 37° C. 2 hours, FIG. 1
T3 construct: made in house; host or cells: Pichia pastoris (yeast), microsomal sample
T3 sequence (Q9H5J4 1-265): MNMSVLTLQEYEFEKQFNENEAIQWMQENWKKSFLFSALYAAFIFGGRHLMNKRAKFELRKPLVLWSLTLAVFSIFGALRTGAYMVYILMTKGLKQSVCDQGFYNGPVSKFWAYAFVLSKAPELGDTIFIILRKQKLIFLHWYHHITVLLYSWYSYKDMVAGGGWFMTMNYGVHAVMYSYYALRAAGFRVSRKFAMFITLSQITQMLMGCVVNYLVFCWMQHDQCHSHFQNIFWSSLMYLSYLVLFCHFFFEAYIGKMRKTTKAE
Description: as §1, with “above-mentioned yeast” for “cell”, “sample,” for “sample of hElovl-3 or hElovl-1 obtained by the above-mentioned preparation method,”, “Sigma),” for “Sigma, manufactured by Avanti),”
Subsequently, 2 μg of a human acyl-CoA-binding protein tagged with a His tag at the N terminus and 500 μg of SPA resin (PVT copper His-Tag SPA Beads, manufactured by Amersham) were added thereto, and the resulting mixture was incubated at 37° C. for 30 minutes.
The solution after incubation was centrifuged at 3,000 rpm, and an activity was measured using a Top Count (Packard). Here, in order to evaluate a specific activity, an expression vector in which hLCE was not cloned was transfected into a host yeast, Pichia pastris by the electroporation method, whereby a transformed yeast was obtained. […]

Compound: CCCCCCCCCCCCCCCCCCCC(=O)SCCNC(=O)CCNC(=O)[C@H](O)C(C)(C)COP(=O)(O)OP(=O)(O)OC[C@H]1O[C@@H](n2cnc3c(N)ncnc32)[C@H](O)[C@@H]1OP(=O)(O)O [arachidoyl-CoA]
- enhancement of a signal (enzyme activity with the acyl-CoA used as the substrate) [1]: specific enhancement of a signal was observed

Compound: CCCCCCCCCCCCCCCCCCCCCCCC(=O)SCCNC(=O)CCNC(=O)[C@H](O)C(C)(C)COP(=O)(O)OP(=O)(O)OC[C@H]1O[C@@H](n2cnc3c(N)ncnc32)[C@H](O)[C@@H]1OP(=O)(O)O [lignoceroyl-CoA]
- enhancement of a signal (enzyme activity with the acyl-CoA used as the substrate) [2]: enhancement of a signal was not observed
- enhancement of a signal (enzyme activity with the acyl-CoA used as the substrate) [1]: enhancement of a signal was not observed

Compound: CCCCCCCCCCCCCCCC(=O)SCCNC(=O)CCNC(=O)[C@H](O)C(C)(C)COP(=O)(O)OP(=O)(O)OC[C@H]1O[C@@H](n2cnc3c(N)ncnc32)[C@H](O)[C@@H]1OP(=O)(O)O [palmitoyl-CoA]
- enhancement of a signal (enzyme activity with the acyl-CoA used as the substrate) [3]: specific enhancement of a signal was observed

Compound: CCCCCCCCCCCCCCCCCC(=O)SCCNC(=O)CCNC(=O)[C@H](O)C(C)(C)COP(=O)(O)OP(=O)(O)OC[C@H]1O[C@@H](n2cnc3c(N)ncnc32)[C@H](O)[C@@H]1OP(=O)(O)O [stearoyl-CoA]
- enhancement of a signal (enzyme activity with the acyl-CoA used as the substrate) [2]: specific enhancement of a signal was observed
- enhancement of a signal (enzyme activity with the acyl-CoA used as the substrate) [3]: enhancement of a signal was not observed
